Measured values reported in patent US20110306650A1 (Chiesi Farmaceutici S.p.A., priority 2010, published 2011).

Assay: compatibility with other active ingredients in pharmaceutical formulations
Type: physicochemical
Conditions: especially with formoterol; relative to glycopyrronium bromide

## C[N+]1(C)CCC(OC(=O)C(O)(c2ccccc2)C2CCCC2)C1.[Cl-] (stereo not shown) [glycopyrronium chloride]
  compatibility with other active ingredients: better compatibility
